In the assay the test system is human iPSC single-cell survival, ATP luminescence. The assay can be described thus: enhancers of single-cell hiPSC survival, dose response, luminescence (AID 623861).

Each structure is given as a SMILES string. The source made the active and inactive calls.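 How the source made its calls: active means compounds whose EC50 for boosting single-cell stem cell survival is at or below a set limit; inactive means the rest.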

As for `C=C1C(=O)OC2CC(C)C3C=CC(=O)C3(C)C(O)C12` (stereo unspecified), the 50% effective concentration (EC50) was 9.47 µM.
`COc1ccc(CN(C)CCCn2cnc3c(OC)ncnc32)cc1OC`: the EC50 was > 80 µM (inactive).
For `CCCNC(=O)COC(=O)c1ccccc1C(=O)c1ccc(Cl)c([N+](=O)[O-])c1`, the EC50 was 47.1 µM (inactive).
Regarding `CCOC(=O)c1ccc(NC(=O)c2nc(S(=O)(=O)Cc3ccccc3)ncc2Cl)cc1`, the EC50 was > 80 µM (inactive).
`N#C/C(=C/c1cccc([N+](=O)[O-])c1)c1nnc2n1CCCCC2`: the EC50 is 7.37 µM.
`OC(c1ccc(Cl)cc1)c1ncc(-c2cccc(C(F)(F)F)c2)[nH]1` (stereo unspecified): the EC50 was > 80 µM (inactive).
The value for `O=C(Nc1ccncc1)c1c(F)cccc1F` was 3.27 µM.
For `O=C(COc1ccccc1)Nc1nc(-c2ccncc2)cs1`, the EC50 is 15.9 µM.
For `CCCCCCn1c(SCCN2CCOCC2)nc2c1c(=O)[nH]c(=O)n2C`, the EC50 was > 80 µM (inactive).
The value for `COc1ccc(C2=CC(=O)C[C@H](c3ccc(OC)c(OC)c3)C2)cn1` was > 80 µM (inactive); that for `O=C(Nc1cccnc1Cl)c1cccnc1Cl` was > 80 µM (inactive).
As to `Cc1ccc(-n2nc(C)c3c(C)cc(=O)[nH]c32)cc1`, the EC50 was > 80 µM (inactive).
Consider `CCCCCCC[C@@H](C/C=C/CCC(=O)N(C)C/C(=C/Cl)C/C(=C\C(=O)N1CC(OC)=CC1=O)OC)OC`, for which the EC50 is 1.11 µM.
In the case of `CCCSc1nc(N2CCOCC2)c2c(c1C#N)CC(C)(C)SC2` it was 25.6 µM (inactive); in that of `CN(C)c1ccc(-c2ccnc3c2CC(C)(C(=O)Nc2ccc(Cl)c(C(F)(F)F)c2)O3)cc1` (stereo unspecified), > 80 µM (inactive); in that of `Cc1c(C(=O)NCc2ccccc2C(F)(F)F)sc(=O)n1Cc1ccc2ccccc2c1`, > 80 µM (inactive).
With `CCN1C/C(=C\c2cccc([N+](=O)[O-])c2)C(=O)/C(=C/c2cccc([N+](=O)[O-])c2)C1`, the EC50 is 20 µM.
Take `O=C(NCCCN1CCCCCC1)c1ccc(CS(=O)(=O)Cc2ccccc2F)o1`: the EC50 was > 80 µM (inactive).
For `CCS(=O)(=O)c1ncc(Cl)c(C(=O)Nc2ccc(S(=O)(=O)N(C)c3ccccc3)cc2)n1`, the EC50 was > 80 µM (inactive).
Regarding `COCCNC(=O)c1ccc(-c2cn[nH]c2)c2ccoc12`, the EC50 is 11.2 µM.
Turning to `COc1ccc(OC)c(NC(=O)C(CC(C)C)NC(=O)C2CCCCC2)c1` (stereo unspecified), the EC50 was > 80 µM (inactive).
The value for `CCCOC(=O)Oc1ccc2c(=O)c(Oc3cc(C)cc(C)c3)coc2c1` was > 80 µM (inactive).
Turning to `Oc1ccc(-c2onc(C(F)(F)F)c2-c2cscn2)c(O)c1`, the EC50 is > 80 µM (inactive).
The value for `Cc1ccc(OCCN2CCN(c3nc(NCc4ccco4)c4ccccc4n3)CC2)cc1` was 2.81 µM; that for `O=C(O)c1ccccc1C(=O)NCC(O)COCC1CC=CCC1` (stereo unspecified) was > 80 µM (inactive); that for `Cc1cc(C)c2nc(N3CCN(C)CC3)c(C#N)cc2c1` was > 80 µM (inactive).
The value for `CCC(OC(=O)c1ccc(S(C)(=O)=O)c([N+](=O)[O-])c1)C(=O)NC1C2CC3CC(C2)CC1C3` (stereo unspecified) was > 80 µM (inactive); that for `COc1c(Cl)cnn(-c2ccc(C)cc2)c1=O` was > 80 µM (inactive); that for `CCCCc1cc(=O)oc2cc(OCc3cc(OC)c(OC)c(OC)c3)c(Cl)cc12` was > 80 µM (inactive).
The value for `CN(CCOc1ccc(-c2ccn(S(=O)(=O)c3c(Cl)cccc3Cl)n2)cc1)c1ccccn1` was > 80 µM (inactive); that for `c1ccc(CN2CCN(c3nc(NCc4ccco4)c4ccccc4n3)CC2)cc1` was 1.05 µM.
Take `C[C@@H]1CCCCO[C@@H](CN(C)S(=O)(=O)c2cccs2)[C@@H](C)CN([C@H](C)CO)C(=O)c2cc(NS(=O)(=O)c3ccccc3)ccc2O1`: the EC50 is > 80 µM (inactive).
In the case of `CC(OC(=O)c1ccc(S(=O)(=O)N2CCCCC2)cc1)C(=O)Nc1ccc(C(N)=O)cc1` (stereo unspecified), the EC50 was 8.72 µM.
`COc1ccc2c(c1)c(=O)c(C(=O)c1ccc(Cl)cc1)cn2CC(=O)Nc1ccc(F)cc1`: the concentration for a half-maximal effect (EC50) was 15.6 µM.
In the case of `Cc1ccc(CN2CCN(Cc3cn(C)nc3C)CC2CCO)o1` (stereo unspecified) it was > 80 µM (inactive); in that of `CCOC(=O)c1c(-c2cc(OC)c(OC)c(OC)c2)csc1N`, > 80 µM (inactive); in that of `CCOC1=C2[C@H](c3ccc(C)cc3)N(S(=O)(=O)c3ccc(C)cc3)C[C@H]2n2c(=O)n(-c3ccccc3)c(=O)n2C1`, > 80 µM (inactive).
In the case of `CC(OC(=O)c1ccc(S(C)(=O)=O)c([N+](=O)[O-])c1)C(=O)NC1C2CC3CC(C2)CC1C3` (stereo unspecified) it was > 80 µM (inactive); in that of `O=C(Nc1nc(-c2ccncc2)cs1)C1COc2ccccc2O1` (stereo unspecified), 3.19 µM.
Regarding `CCCc1ccc(C(=O)N2CCN(c3ccccc3OCC)CC2)cc1`, the EC50 was > 80 µM (inactive).
For `Cn1nc(-c2ccccc2)c(C(O)c2ccccc2C(F)(F)F)c1Cl` (stereo unspecified), the EC50 is > 80 µM (inactive).
As for `O=C(NCC1CC1)c1ccc(-c2cn[nH]c2)c2ccoc12`, the EC50 is 13.1 µM.
For the molecule `COc1ccc(C(C#N)(CC(=O)O)c2cnccn2)cc1OC` (stereo unspecified), the EC50 was > 80 µM (inactive).
In the case of `O=C1CCC2(C(=O)O)Sc3ccccc3N12` (stereo unspecified), the EC50 is > 80 µM (inactive).
For the molecule `Cc1ccc(NC(=O)/C(=C\c2ccc([N+](=O)[O-])cc2)NC(=O)c2ccccc2)cc1`, the EC50 was > 80 µM (inactive).
As to `NC(=O)c1ccc(NC(=O)CCC(=O)c2cccs2)cc1`, the concentration giving a half-maximal response (EC50) is 9.86 µM.
Take `C=C1C(C)C2C(Cc3ccccc3)NC(=O)C23C(OC(C)=O)C=CC(C)(O)CC(C)CC=CC3C1O` (stereo unspecified): the EC50 was 0.448 µM.
As for `O=C(Nc1ccncc1)c1ccccc1F`, the EC50 was 41 µM (inactive).
Turning to `CS(=O)(=O)N(Cc1cc2ccccc2[nH]c1=O)C1CCCCC1`, the EC50 was > 80 µM (inactive).
Regarding `CN(C(=O)COC(=O)c1nc(Cl)c(Cl)c(Cl)c1Cl)C1CCS(=O)(=O)C1` (stereo unspecified), the EC50 was 31.1 µM (inactive).
Turning to `COC(=O)[C@]1(Cc2ccccc2)N[C@H](CN(C)C(=O)Nc2ccccc2)[C@@H]2C(=O)N(C)C(=O)[C@@H]21`, the EC50 was > 80 µM (inactive).
In the case of `CCn1c(Cl)c(C=O)s/c1=N\S(=O)(=O)c1ccccc1` it was 24.8 µM (inactive); in that of `O=C1/C(=C/c2ccncc2)CCC/C1=C\c1ccncc1`, 10.1 µM.
As to `CN(Cc1ccc(C(F)(F)F)cc1)C(=O)[C@H]1O[C@@H](n2cnc3c(N)ncnc32)[C@H](O)[C@@H]1O`, the EC50 is 26.1 µM (inactive).
`COc1ccc(CC(=O)N2N=C(c3ccncc3)CC2(O)C(F)(F)F)cc1` (stereo unspecified): the EC50 was > 80 µM (inactive).
With `CCOC(=O)c1c(C)nc2sc3c(c2c1-c1ccc(OC)cc1)NC(c1ccccc1)NC3=O` (stereo unspecified), the EC50 is > 80 µM (inactive).
Consider `COc1ccccc1Sc1nc(-c2ccccn2)ncc1OC`, for which the EC50 is 40.8 µM (inactive).
For the molecule `Cn1c(=O)cc(OCCCC(=O)Nc2cccc(Cl)c2)c2ccccc21`, the EC50 is > 80 µM (inactive).
With `CCCCn1c(=O)[nH]c(=O)c2c1nc(Cn1ncc(Cl)c(Cl)c1=O)n2CCC`, the EC50 is 5.62 µM.
Consider `COc1ccccc1CC(=O)Nc1ccc(-c2noc(COc3cccc(C)c3C)n2)cc1`, for which the EC50 was > 80 µM (inactive).
Consider `COc1cccc(C2CC(=O)N3CN(c4cccc(Cl)c4C)CSC3=C2C#N)c1OC` (stereo unspecified), for which the EC50 was > 80 µM (inactive).
For the molecule `O=C(Nc1ccncc1)c1c(F)c(F)c(F)c(F)c1F`, the EC50 was 5.93 µM.
Consider `CC(Oc1ccccc1)C(=O)Nc1nc(-c2ccncc2)cs1` (stereo unspecified), for which the EC50 was 37.8 µM (inactive).
Take `Cc1sc(-c2ccccn2)nc1OC(=O)c1ccc(Cl)c(Cl)c1`: the EC50 is > 80 µM (inactive).
The value for `CNc1nc(Cl)nc(NC(C)(C)C)n1` was > 80 µM (inactive).
In the case of `Cc1ccc2c(COC(=O)C3=COCCO3)cc(=O)oc2c1` it was > 80 µM (inactive); in that of `CCc1c(C(=O)Nc2ccc(OC)cc2)[nH]c(C)c1C(C)=O`, > 80 µM (inactive); in that of `O=C(C(O)c1ccc(Br)cc1)N1CCC(Nc2ccc3[nH]ncc3c2)CC1` (stereo unspecified), 6.68 µM.
As for `Cc1cccc(Cc2c(C)nc3c(C(=O)NCc4ccco4)cnn3c2C)c1`, the EC50 is > 80 µM (inactive).
In the case of `CCOc1ccc(S(=O)(=O)Nc2cccc(C(=O)N3CCN(c4ccc(OC)cc4)CC3)c2)cc1` it was > 80 µM (inactive); in that of `C=C(C)[C@@]12OC3(c4ccccc4)O[C@@H]1C1[C@@H]4O[C@]4(CO)[C@@H](O)[C@]4(O)C(=O)C(C)=C[C@H]4[C@@]1(O3)[C@H](C)[C@H]2OC(=O)/C=C/C=C/c1ccccc1` (stereo partly specified), < 0.156 µM.
Regarding `O=C(Cc1ccc(Br)cc1)Nc1ccc2[nH]ncc2c1`, the EC50 is 25.2 µM (inactive).
Turning to `O=C1NCCN1c1ccccc1`, the EC50 is > 80 µM (inactive).
Regarding `CC(=O)c1ccccc1NC(=O)COC(=O)CCCN1C(=O)c2cccc3cccc(c23)C1=O`, the EC50 is > 80 µM (inactive).
With `COc1ccc(N2C(=O)CC(Sc3nccc(C)n3)C2=O)c(OC)c1` (stereo unspecified), the EC50 was > 80 µM (inactive).
On to `O=C(NCc1ccccc1)c1ccc(-c2cn[nH]c2)c2ccoc12`, for which the concentration for a half-maximal effect (EC50) is 1.22 µM.
In the case of `C=C1C(C)C2C(Cc3ccccc3)NC(=O)C23OC(=O)/C=C/C(O)CCCC(C)C/C=C/C3C1O` (stereo unspecified), the EC50 is 11.5 µM.
Take `CCCOC(=O)C1NC(=O)N2C(C(=O)OCCC)C(C)(C)S[C@H]12` (stereo partly specified): the EC50 is > 80 µM (inactive).
For `CCC(C(=O)Nc1ccc2[nH]ncc2c1)c1ccccc1` (stereo unspecified), the EC50 is 9.45 µM.
With `CS(=O)(=O)Nc1ccc2c3c(cccc13)CC2`, the EC50 is > 80 µM (inactive).
`CCN1C/C(=C/c2cccc([N+](=O)[O-])c2)C(=O)/C(=C/c2cccc([N+](=O)[O-])c2)C1`: the concentration for a half-maximal effect (EC50) is 9.01 µM.
Regarding `C[C@@H](NC(=O)[C@@H]1Cc2ccccc2CN1)C(=O)Nc1ccc2c(c1)OCO2`, the EC50 is > 80 µM (inactive).
The value for `O=c1c(Cl)c(Cl)cnn1Cc1nnc(-c2ccccc2Br)o1` was 8.37 µM; that for `NC(=O)c1ccc(Nc2nc(C(N)c3ccccc3Cl)cs2)cc1` (stereo unspecified) was 39.7 µM (inactive).
The value for `C1CCN(c2nc3nonc3nc2N2CCCC2)C1` was > 80 µM (inactive).
As for `CC(OC(=O)c1ccc2c(=O)n3c(nc2c1)CCC3)C(=O)Nc1ccc(C(N)=O)cc1` (stereo unspecified), the EC50 is 55.6 µM (inactive).

What is called EC50 is the concentration needed to bring the measured effect to its halfway point.

The record behind these values is PubChem BioAssay AID623861 (Sanford-Burnham Center for Chemical Genomics, 2012).
